The record followed here is patent publication US8846671B2, “Heterocyclic alkynyl benzene compounds and medical compositions and uses thereof” (Guangzhou Institute of Biomedicine and Health, Chinese …, priority 2010, dated 2014).

pIC50: −log10 of the molar value. Read-outs that look alike come from different tables or passages of the source.

Series [1] has as its system K562 (human chronic myelogenous leukemia cell line). Kind of series: tumor cell proliferation, MTT or CCK8 assay, 72 h incubation. As to conditions: K562, 72 h, read-out: IC50 on tumor cell proliferation, K562; for IC50: MTT or CCK8, nM. It is filed as cell-based. As to the method: (§1) The heterocyclic alkynyl benzene compounds at different concentrations (1×10^−10˜1×10^−5M) were incubated for 72 hours individually applied to 6 cell lines K562 (human CML cell line), MOLT-4 (human ALL cell line), U937 (human CML cell line), MEG-01 (human CML cell line), L78 (human lung cancer cell line), Ba/F3-T315I (mice Pro-B cells transformed with Bcr-AblT315I and STI57′-resistant cell line). After incubation for 72 hrs, cell proliferation was then determined by MTT assay or CCK8 assay, and 4 hr incubation is further conducted, the absorbance at 570 nm (CCK8, 450 nm, 650 nm) was measured using enzyme Microplate Reader. […] Based on the inhibition potency of the heterocyclic alkynyl benzene compounds on the cell proliferation, IC50 values were calculated and summarized in the Table 1 and Table 2 (The compounds used were synthesized by Examples 1-40, and the compounds are marked with Drug No. series in Table 1).

The test system of series [2] is MOLT-4 (Human acute lymphoblastic leukemia cell line). The description is as above. Type of series: cell-based. The settings on record: MOLT-4, 72 h, read-out: IC50 on tumor cell proliferation, MOLT-4; for IC50: MTT or CCK8, nM. The protocol:
as §1

In series [3] the test system is K562R cells (imatinib-resistant cell line). The description is as above. It is filed as cell-based. The settings on record: Homo sapiens, K-562R, read-out: IC50 on tumor cell proliferation, K562R cells.
The target of series [4] is BAF3-T315I cells (Ba/F3 cell line stably expressing BCR/ABL T315I) (Homo sapiens, UniProt P00519, T315I, cells depend on it). The series is described as above. It is filed as cell-based, mice. The protocol:
The heterocyclic alkynyl benzene compounds at different concentrations (1×10^−10˜1×10^−5M) were incubated for 72 hours individually applied to 6 cell lines K562 (human CML cell line), MOLT-4 (human ALL cell line), U937 (human CML cell line), MEG-01 (human CML cell line), L78 (human lung cancer cell line), Ba/F3-T315I (mice Pro-B cells transformed with Bcr-AblT315I and STI57′-resistant cell line). After incubation for 72 hrs, cell proliferation was then determined by MTT assay or CCK8 assay, and 4 hr incubation is further conducted, the absorbance at 570 nm (CCK8, 450 nm, 650 nm) was measured using enzyme Microplate Reader.

The next series has as its system U937 Cell line. The series is described as above. The settings on record: Homo sapiens, U-937; 72 h, MTT or CCK8; no unit in cell; read-out: IC50 on tumor cell proliferation, U937. Type of series: cell-based. As to the method:
as §1

The nature of series [5]: Pharmacokinetics and bioavailability in rats. As to conditions: SD rats; corresponding pharmaceutical acceptable salt forms. It is filed as in vivo. The protocol:
Pharmacokinetics and bioavailability in rats. […] The blood samples were collected at the proper time points after administration, add heparin-anticoagulant, and the supernatants of the blood samples were collected (3000 rpm, 10 min) and stored at -20° C. for HPLC-MS analysis. After protein-precipitation procedure with acetonitrile, supernatants were collected after 3000 rpm, 10 min for analysis with HPLC-MS. The data were analyzed with software DAS2.0 to separately acquire the parameters of compartment models and non-compartment models. The bioavailability was calculated according to AUC data.

The mark [6] stands for this setting: Ba/F3 expressing BCR/ABL T315I, 72 h, Table 1; read-out: IC50 on tumor cell proliferation, BAF3-T315I cells.
[7] abbreviates: read-out: IC50 on tumor cell proliferation, BAF3-T315I cells; Ba/F3 expressing BCR/ABL T315I, 72 h, Table 1.

Consider `Cc1cn(-c2cc(NC(=O)c3ccc(C)c(C#Cc4cnc5[nH]ccc5c4)c3)cc(C(F)(F)F)c2)cn1` [D832, 3-(2-(1H-pyrrolo[2,3-b]pyridin-5-yl)ethynyl)-4-methyl-N-(3-(4-methyl-1H-imidazol-1-yl)-5-(trifluoromethyl)phenyl)benzamide], for which the IC50 was 7.27 nM in series [1] and greater than 100 nM in series [2]. The pIC50 in series [3] (imatinib-resistant K562R) is 6.70. In addition, the GI50 in series [4] (setting [6]) was 21.8 nM.
Turning to `Cc1cn(-c2cccc(NC(=O)c3ccc(C)c(C#Cc4cnc5[nH]ncc5c4)c3)c2)cn1` [D967, 3-(2-(1H-pyrazolo[3,4-b]pyridin-5-yl)ethynyl)-4-methyl-N-(3-(4-methyl-1H-imidazol-1-yl)phenyl)benzamide], the pIC50 in series [1] (MTT or CCK8, no unit in cell) is 9.50; in the series on U937 Cell line, 5.23; in series [3] (imatinib-resistant K562R), 6.68. In series [4] (setting [6]), the GI50 amounted to 798 nM.
Regarding `Cc1ccc(C(=O)Nc2ccc(CN3CCN(C)CC3)c(C(F)(F)F)c2)cc1C#Cc1cnc2[nH]ncc2c1` [D824, 3-(2-(1H-pyrazolo[3,4-b]pyridin-5-yl)ethynyl)-4-methyl-N-(4-((4-methylpiperazin-1-yl)methyl)-3-(trifluoromethyl)phenyl)benzamide], the results for the IC50 in series [1] and in series [2] were 0.494 nM and greater than 100 nM, respectively. Further, the pIC50 in series [3] (imatinib-resistant K562R) was 7.85. Further, in series [5], the “pharmacokinetics parameters, overall judgement” value (from here on “pharmacokinetics parameters”) is reported as “adequate pharmacokinetics parameters”. Further, the GI50 in series [4] (setting [7]) came out at 1.65 nM.
For the compound `Cc1cn(-c2cc(NC(=O)c3ccc(C)c(C#Cc4cnc(NC[C@H](O)CO)nc4)c3)cc(C(F)(F)F)c2)cn1` [D834, 3-(2-(2-((S)-2,3-dihydroxypropylamino)pyrimidin-5-yl)ethynyl)-4-methyl-N-(3-(4-methyl-1H-imidazol-1-yl)-5-(trifluoromethyl)phenyl)benzamide], the IC50 in series [1] was 8.7 nM; in series [2] it was greater than 100 nM. Further, in series [3] (imatinib-resistant K562R), the pIC50 is 6.72. Also, the GI50 in series [4] (setting [6]) was 215 nM.
For the compound `Cc1ccc(C(=O)Nc2cccc(C(F)(F)F)c2)cc1C#Cc1cnc2[nH]ncc2c1` [D821, 3-(2-(1H-pyrazolo[3,4-b]pyridin-5-yl)ethynyl)-4-methyl-N-(3-(trifluoromethyl)phenyl)benzamide], the IC50 in series [1] was 0.724 nM; in series [2], greater than 100 nM. The pIC50 in series [3] (imatinib-resistant K562R) was 7.24. In series [4] (setting [6]), the GI50 worked out at 19.5 nM.
As for `Cc1cn(-c2cc(NC(=O)c3ccc(C)c(C#Cc4cnc(NC5CCCCC5)nc4)c3)cc(C(F)(F)F)c2)cn1` [D828, 3-(2-(2-(cyclohexylamino)pyrimidin-5-yl)ethynyl)-4-methyl-N-(3-(4-methyl-1H-imidazol-1-yl)-5-(trifluoromethyl)phenyl)benzamide], the pIC50 in series [1] was 7.51; in series [2] it was less than 7.00; in series [3] it was 5.51. The GI50 in series [4] (setting [7]) turned out to be 2480 nM.
Regarding `Cc1ccc(C(=O)Nc2cc(-n3ccnc3)cc(C(F)(F)F)c2)cc1C#Cc1cnc2[nH]ncc2c1` [D831, N-(3-(1H-imidazol-1-yl)-5-(trifluoromethyl)phenyl)-3-(2-(1H-pyrazolo[3,4-b]pyridin-5-yl)ethynyl)-4-methylbenzamide], the IC50 in series [1] stood at 0.466 nM; in series [2], 7130 nM. For the same compound, in series [3] (imatinib-resistant K562R), the pIC50 is 7.27. The “pharmacokinetics parameters” value in series [5] is listed as “adequate pharmacokinetics parameters”. Moreover, the GI50 in series [4] (setting [6]) came out at 36.8 nM.
Take `Cc1ccc(C(=O)Nc2ccc(CN3CCN(C)CC3)c(C(F)(F)F)c2)cc1C#Cc1cnc(NC2CC2)nc1` [D825, 3-(2-(2-(cyclopropylamino)pyrimidin-5-yl)ethynyl)-4-methyl-N-(4-((4-methylpiperazin-1-yl)methyl)-3-(trifluoromethyl)phenyl)benzamide]: the IC50 was 1.88 nM in series [1] and 92.9 nM in series [2]. For the same compound, the pIC50 in series [3] (imatinib-resistant K562R) is 7.30. Also, the “pharmacokinetics parameters” value in series [5] was “adequate pharmacokinetics parameters”. The GI50 in series [4] (setting [6]) was determined as 15.7 nM.
`Cc1cn(-c2cc(NC(=O)c3ccc(C)c(C#Cc4ccc(N)nc4)c3)cc(C(F)(F)F)c2)cn1` [D827, 3-(2-(6-aminopyridin-3-yl)ethynyl)-4-methyl-N-(3-(4-methyl-1H-imidazol-1-yl)-5-(trifluoromethyl)phenyl)benzamide]: the IC50 in series [1] turned out to be 2.68 nM; in series [2] it was 1850 nM. In addition, in series [3] (imatinib-resistant K562R), the pIC50 was 7.23. Further, in series [4] (setting [6]), the GI50 was found to be 29.8 nM.
As to `Cc1cn(-c2cc(NC(=O)c3ccc(C)c(C#Cc4cnc5[nH]ncc5c4)c3)cc(C(C)(C)C)c2)cn1` [D968, 3-(2-(1H-pyrazolo[3,4-b]pyridin-5-yl)ethynyl)-N-(3-tert-butyl-5-(4-methyl-1H-imidazol-1-yl)phenyl)-4-methylbenzamide], the pIC50 in series [1] (MTT or CCK8, no unit in cell) was 9.15; with U937 Cell line, less than 6.00; in series [3] (imatinib-resistant K562R), 7.49. In addition, the GI50 in series [4] (setting [6]) amounted to 6.36 nM.
With `Cc1ccc(C(=O)Nc2ccc(CN3CC[C@@H](N(C)C)C3)c(C(F)(F)F)c2)cc1C#Cc1cnc2[nH]ncc2c1` [D965, (R)-3-(2-(1H-pyrazolo[3,4-b]pyridin-5-yl)ethynyl)-N-(4-((3-(dimethylamino)pyrrolidin-1-yl)methyl)-3-(trifluoromethyl)phenyl)-4-methylbenzamide], the pIC50 is 9.23 in series [1] (MTT or CCK8, no unit in cell); 6.09 in the series on U937 Cell line; 8.24 in series [3] (imatinib-resistant K562R). In series [4] (setting [6]), the GI50 is 6.87 nM.
For the compound `Cc1cn(-c2cc(Cl)cc(NC(=O)c3ccc(C)c(C#Cc4cnc5[nH]ncc5c4)c3)c2)cn1` [D964, 3-(2-(1H-pyrazolo[3,4-b]pyridin-5-yl)ethynyl)-N-(3-chloro-5-(4-methyl-1H-imidazol-1-yl)phenyl)-4-methylbenzamide], the pIC50 in series [1] (MTT or CCK8, no unit in cell) is 9.03; with U937 Cell line, less than 6.00; in series [3] (imatinib-resistant K562R), 7.49. In series [4] (setting [6]), the GI50 was 24.2 nM.
`Cc1cn(-c2cc(F)cc(NC(=O)c3ccc(C)c(C#Cc4cnc5[nH]ncc5c4)c3)c2)cn1` [D963, 3-(2-(1H-pyrazolo[3,4-b]pyridin-5-yl)ethynyl)-N-(3-fluoro-5-(4-methyl-1H-imidazol-1-yl)phenyl)-4-methylbenzamide]: the pIC50 was 9.00 in series [1] (MTT or CCK8, no unit in cell); less than 6.00 in the series with U937 Cell line; 7.12 in series [3] (imatinib-resistant K562R). For the same compound, the GI50 in series [4] (setting [6]) was 243 nM.
For the compound `Cc1ccc(C(=O)Nc2ccc(CN3CC[C@H](N(C)C)C3)c(C(F)(F)F)c2)cc1C#Cc1cnc2[nH]ncc2c1` [D966, (S)-3-(2-(1H-pyrazolo[3,4-b]pyridin-5-yl)ethynyl)-N-(4-((3-(dimethylamino)pyrrolidin-1-yl)methyl)-3-(trifluoromethyl)phenyl)-4-methylbenzamide], the pIC50 is 9.49 in series [1] (MTT or CCK8, no unit in cell) and 7.73 with U937 Cell line. The GI50 in series [4] (setting [6]) came out at 13.8 nM.
As for `Cc1cn(-c2cc(NC(=O)c3ccc(C)c(C#Cc4cnc5ccnn5c4)c3)cc(C(F)(F)F)c2)cn1` [D822, 4-methyl-N-(3-(4-methyl-1H-imidazol-1-yl)-5-(trifluoromethyl)phenyl)-3-(2-(pyrazolo[1,5-a]pyrimidin-6-yl)ethynyl)benzamide], the results for the IC50 in series [1] and in series [2] were 4.34 nM and greater than 100 nM, respectively. Moreover, the pIC50 in series [3] (imatinib-resistant K562R) was 6.24. For the same compound, the “pharmacokinetics parameters” value in series [5] is recorded as “adequate pharmacokinetics parameters”. For the same compound, the GI50 in series [4] (setting [6]) worked out at 1100 nM.
